# Data taken from patent publication US11730717B1, “Melanin-inspired antimicrobial” (The Board of Regents for the Oklahoma Agricultural and …, priority 2020, dated 2023).
# Entries after “also recorded” stand apart in the source; their conditions may differ. Like-named read-outs stand apart in the source and are kept apart here.
# Key:
# MRSA = test: Live/Dead staining and fluorescent microscopy; assay type: cell-based, Staphylococcus aureus
# Description: MRSA was grown overnight in 10 mL of LB broth, sub-cultured (5 mL of overnight culture added to 20 mL LB) and grown for 3 h. Bacterial culture (150 μL) were removed and transferred to a 1.5 mL centrifuge tube, which was treated with DMSO, EIPE-1 (0.01 mg/mL) or DBI (0.01 mg/mL) for 30 minutes. Equal amounts of the two dyes (SYTO 9 dye, 3.34 mM in DMSO), and propidium iodide (20 mM in DMSO) were mixed. Then 0.5 μL of the dye mixture was added to each tube of treated MRSA cultures. Wet mounts were prepared on glass slides for imaging live and dead MRSA, and Differential Interference Contrast (DIC) images were obtained using a Leica DMI600B fluorescent microscope. To determine the percentage of bacteria alive and dead, the total bacteria in each condition were counted in 20 fields of view and graphed using Prism 5.0.
# To address MRSA viability in response to EIPE-1 treatment, a Live/Dead staining and microscopy was utilized. MRSA was treated with either DBI or EIPE-1 (16 μg/mL, 17 μM each) for 30 minutes (DMSO was used as a negative solvent control) and then stained with the dyes, Syto™ 9 and propidium iodide.
# [1] = system: Pseudomonas aeruginosa (PA); test: Comparison with Methicillin and Gentamicin, recoverable CFU; assay type: cell-based; conditions: compared with Methicillin and Gentamicin treatment
# Description: To determine CFUs of PA and MRSA after exposure to DMSO, DBI, EIPE-1, Gentamicin or Methicillin, 10-fold serial dilutions were prepared in 96-well micro plates using multichannel pipettes. For each dilution, 25 ptL of each sample was pipetted onto a plate containing agar medium and incubated for 18 h at 37° C. The number of colonies for each dilution were counted and used to back calculate the number of bacteria per mL (CFU/mL) in each original bacterial culture.
# EIPE-1 antimicrobial activity against MRSA and PA was compared to that of Methicillin and Gentamicin treatment. Bacterial cultures were grown, normalized and then exposed to either DBI, DMSO (solvent control), EIPE-1, Methicillin or Gentamicin (FIG. 3). […] This is highly significant and novel as methicillin resistance is a huge problem in hospitals and patient treatment worldwide. […] Gram-negative bacteria like PA have an outer membrane covered with lipopolysaccharides that protects the bacteria from antibiotics, dyes, and detergents from penetrating the bacterial cell.
# [2] = system: Bacillus subtilis ATCC 6633; test: Disc agar diffusion assay; assay type: cell-based
# Description: As a further test of an embodiment, the antibacterial properties of EIPE-1 were tested across a large panel of organisms. EIPE-1 was dissolved in DMSO, impregnated onto sterile filter paper disks, and DMSO served as the untreated control according to the following procedure: • 1. Prepare a 2.5 μg/μL stock solution of EIPE-1 by micro pipetting 200 μL of DMSO into 2.0 mL Eppendorf Tube containing 0.5 mg of EIPE-1. Dissolve with vortex agitation and store at 4° C. • 2. Use forceps to pick up sterile 6.0 mm blank paper disks. Make sure to touch only one side of disc as lightly as possible. […] Lean the impregnated disc up against the side of a small sterile glass petri dish. Follow same procedure for DMSO control. Allow disks several hours to dry under flowing sterile air. • 3. Inoculate starter cultures using cells from working culture cultivated on Mueller-Hinton Agar (MHA; Difco Laboratories). Starters consist of ˜20 mL of Mueller-Hinton Broth (MHB; Difco Laboratories) in 125-mL culture flasks. Incubate starter cultures in an Excella E24 Benchtop Incubator Shaker (New Brunswick Scientific Co., Inc., Edison, N.J., USA) at 37° C. and 180 rpm for 15-18 hours. • 4. Pour at least 5.0 mL of NMB into 18-mL Kimax tubes. Use a Pasteur pipette to deliver enough of the starter culture cell suspension to reach an optical density (OD620) of 0.025 (Spectronic™ 20 optical spectrophotometer; Thermo Electron Corp., Madison, Wis., USA). Ensure that both transmittance and absorbance are set to 0.0 using a blank NMB sample. Incubate in rotary shaking incubator at 37° C. and 180 rpm until optical density reaches 0.1. • 5. Deliver 100 μL of test culture to the middle of a small 100 mm×15 mm Petri dish containing ˜⅛ in thickness of MHA. • 6. Saturate a sterile cotton swab with MHB by dipping the cotton swab into KIMAX® tube with MHB and then touch the swab to the north, south, east, and west side of the KIMAX® tube to remove excess broth. • 7. Streak the inoculum as follows: • a. Start in the center and make four straight lines to the 12, 3, 6, and 9 o'clock position on the petri dish. • b. Start at the 12 o'clock position and streak side to side all the way down the plate to the 6 o'clock position. […] Rotate the petri dish 90° and complete the same side to side streak all the way down the petri dish. • d. Complete step c. twice more. • e. Rotate petri dish 45° and complete the side-to-side streak. • f. Rotate petri dish 90° and complete the side-to-side streak. • 8. Use sterile forceps to transfer the DMSO control paper disc onto the agar surface and pat the paper disc down to ensure flush contact. Use the same technique to deliver EIPE-1 paper disc. • 9. Place petri dish at 4° C. for 1.0 hour to allow EIPE-1 diffusion in the absence of growth. • 10. Incubate petri dish at 37° C. for 18 hours. • 11. Observe for zones of growth inhibition surrounding disks. Measure diameter with electronic caliper and subtract 6.0-mm disc diameter. Results • a) Each organism was initially tested once to serve as a screen.
# E. faecalis = test: MIC and MBC values (Table 2); assay type: cell-based, Enterococcus faecalis; conditions: repeated determinations
# S. lactis = test: MIC and MBC values (Table 2); assay type: cell-based; conditions: repeated determinations
# S. epidermidis SK01 = test: MIC and MBC values (Table 2); assay type: cell-based; conditions: Staphylococcus epidermidis
compound,measurement,setting,value
"COC(=O)c1cc2c(C#Cc3ccc(OCCC[N+](C)(C)C)cc3)c(OC)c(OC)c(C#Cc3ccc(OCCC[N+](C)(C)C)cc3)c2n1C [EIPE-1, 3,3′-((((5,6-dimethoxy-2-(methoxycarbonyl)-1-methyl-1H-indole-4,7-diyl)bis(ethyne-2,1-diyl))bis(4,1-phenylene))bis(oxy))bis(N,N,N-trimethylpropan-1-aminium) iodide]","Live/Dead staining (green = intact membrane, red = damaged membrane)","MRSA; 16 μg/mL, 17 μM, 30 minutes, Syto 9 and propidium iodide",only stained red
same,time of exposure until biocidal activity occurred,MRSA; MRSA,≤ 30 min
same,activity against PA,[1],does not appear to have activity; also recorded: did not display any activity
same,Inhibition Zone Diameter (mm) ± SD,"[2]; B. subtilis ATCC 6633, 25 μg per disk, zone minus disk diameter (6.0mm)",1.1 ± 0.2 mm
same,Inhibition Zone Diameter (mm) ± SD,"[2]; B. subtilis ATCC 6633, 50 μg per disk, zone minus disk diameter (6.0mm)",3.3 ± 0.1 mm
same,zone of inhibition at 25 µg/disc,"[2]; Bacillus subtilis, ATCC6633, B. subtilis ATCC 6633, 25 μg per disk, zone minus disk diameter (6.0mm), read-out: Inhibition Zone Diameter (mm) ± SD",1.1 mm
same,zone of inhibition at 50 µg/disc,"[2]; Bacillus subtilis, ATCC6633, B. subtilis ATCC 6633, 50 μg per disk, zone minus disk diameter (6.0mm), read-out: Inhibition Zone Diameter (mm) ± SD",3.3 mm
same,zone of inhibition at 250 µg/disc,"[2]; Bacillus subtilis, ATCC6633, B. subtilis ATCC 6633, 250 μg per disk, zone minus disk diameter (6.0mm), read-out: Inhibition Zone Diameter (mm) ± SD",1.8 ± 0.3 mm
same,susceptibility group in disc diffusion screen,[2]; Group 3: Gram-positive organisms,susceptible
same,MIC,"E. faecalis; Enterococcus faecalis, read-out: MIC",1 µg/mL
same,MIC,E. faecalis,2.000 µg/mL
same,MBC,S. lactis,2 µg/mL
same,MBC (μg/mL),S. lactis,1.000 µg/mL
same,MIC,S. lactis,1 µg/mL
same,MIC (μg/mL),S. lactis,0.500 µg/mL
same,MBC,S. epidermidis SK01,2 µg/mL
same,MIC,S. epidermidis SK01,1 µg/mL
